Where two headings read alike, the source gives them in different places.

The values below come from article PMC4978154, “Phase I metabolites of mephedrone display biological activity as substrates at monoamine transporters” (British Journal of Pharmacology, 2016).

One assay addresses T1, DAT (Rattus norvegicus, UniProt P23977).
T1 construct: a native tissue preparation that contains plasma membrane transporters in situ; from tissue; host or cells: rat striatum synaptosomes
The assay can be described thus: Transporter release assay in rat brain synaptosomes, DAT. Type of assay: biochemical. The following applies: [3H]-MPP+, mean (95% confidence interval). The procedure:
(§1) The ability of mephedrone and its metabolites to evoke release via DAT, NET and SERT was determined in rat brain synaptosomes as previously described (Baumann et al., 2012). Rats were killed with CO2, decapitated, and brains were rapidly removed and dissected on ice. Synaptosomes were prepared from striatum for DAT assays, whereas synaptosomes were prepared from whole brain minus striatum and cerebellum for the NET and SERT assays. [^3H]‐MPP^+ (9 nM) was used as the radiolabelled substrate for DAT and NET, whereas [^3H]‐5‐HT (5 nM) was used as the radiolabelled substrate for SERT. All buffers used in the release assays contained 1 μM reserpine to block vesicular uptake of substrates. The selectivity of assays was optimized for a single transporter by including unlabelled compounds [nomifensine and 1‐(2‐diphenylmethoxyethyl)‐4‐(3‐phenylpropyl)piperazine dihydrochloride (GBR12935) for SERT; GBR12935 and citalopram for NET; citalopram and desipramine for DAT] to prevent the uptake of [^3H]‐MPP^+ or [^3H]‐5‐HT by competing transporters. Synaptosomes were preloaded with radiolabelled substrate in Krebs‐phosphate buffer, which consisted of 126 mM NaCl, 2.4 mM KCl, 0.5 mM KH2PO4, 1.1 mM CaCl2, 0.83 mM MgCl2, 0.5 mM Na2SO4, 11.1 mM glucose, 13.7 mM Na2HPO4, 1 mg·mL^−1 ascorbic acid and 50 μM pargyline (pH = 7.4) for 1 h (steady state). […] Assays were terminated by vacuum filtration, and retained radioactivity was quantified by liquid scintillation counting.
(§2) Calculations were performed using Microsoft Excel® 2010 (Microsoft Corporation, Redmond, WA, USA) and GRAPHPAD PRISM 5.0. […] IC50 values for uptake inhibition and EC50 values for release were determined by nonlinear regression fits. Release data expressed as AUC were analysed by one‐way ANOVA followed by Bonferroni's multiple comparison test. Microdialysis and locomotor data were analysed by two‐way ANOVA (drug treatment × time) followed by Bonferroni's test. The effect of monensin treatment on basal efflux of tritiated substrate was analysed with the Mann–Whitney test. […]

The target in the next assay is T2, NET (Rattus norvegicus, UniProt Q63380).
T2 construct: a native tissue preparation that contains plasma membrane transporters in situ; from tissue; host or cells: rat whole brain minus striatum and cerebellum, synaptosomes
T2 sequence (Q63380 1-617): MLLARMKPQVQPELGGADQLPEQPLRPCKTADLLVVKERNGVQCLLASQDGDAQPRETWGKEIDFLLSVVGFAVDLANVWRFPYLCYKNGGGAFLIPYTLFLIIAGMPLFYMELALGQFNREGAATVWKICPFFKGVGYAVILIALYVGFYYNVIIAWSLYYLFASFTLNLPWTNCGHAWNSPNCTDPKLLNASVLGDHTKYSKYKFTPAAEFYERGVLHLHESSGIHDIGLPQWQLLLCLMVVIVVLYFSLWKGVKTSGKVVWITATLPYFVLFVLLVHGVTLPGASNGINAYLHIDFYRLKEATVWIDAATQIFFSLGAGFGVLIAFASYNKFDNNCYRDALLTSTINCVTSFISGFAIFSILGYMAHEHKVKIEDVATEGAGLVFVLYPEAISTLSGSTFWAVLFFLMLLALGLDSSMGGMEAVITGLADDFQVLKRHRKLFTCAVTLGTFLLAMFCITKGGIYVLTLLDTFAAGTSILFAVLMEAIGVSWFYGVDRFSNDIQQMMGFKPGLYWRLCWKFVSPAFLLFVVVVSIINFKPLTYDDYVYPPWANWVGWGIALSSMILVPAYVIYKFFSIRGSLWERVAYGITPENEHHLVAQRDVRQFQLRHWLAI
In words: Transporter release assay in rat brain synaptosomes, NET. The following applies: [3H]-MPP+, mean (95% confidence interval). Type of assay: biochemical. The procedure:
as §1, §2

The test system of assay [1] is extracellular dopamine in rat nucleus accumbens. In words: Microdialysis in rat nucleus accumbens, dialysate dopamine. The class given is in vivo. As to conditions: versus saline. As for the experimental part:
(§3) In vivo microdialysis procedures were carried out as previously described with minor modifications (Baumann et al., 2012). Briefly, male rats anaesthetized with sodium pentobarbital (60 mg·kg^−1, i.p.) received surgically implanted jugular catheters, and intracerebral guide cannulae aimed at the nucleus accumbens (AP +1.6 mm, ML −1.7 mm relative to bregma; −6.2 mm relative to dura) (Paxinos and Watson, 2007). After a 7–10 day recovery, each rat was placed into a chamber equipped with photobeams for the detection of motor parameters (TruScan, Harvard Apparatus, Holliston, MA, USA) and allowed to acclimatize overnight. Food and water were available ad libitum during the acclimatization period. On the following morning, catheters were attached to PE 50 extension tubes, and 0.5 × 2 mm microdialysis probes (CMA/12, Harvard Apparatus, Holliston, MA, USA) were inserted into the guide cannulae. Ringers' solution (150 mM NaCl, 2.8 mM KCl and 2.0 mM CaCl2) was perfused through the probes at 0.6 μL·min^−1 for 3 h. To commence experiments, dialysate samples ([…]) were collected at 20 min intervals, and drug or saline treatments were given after three baseline samples were obtained. Rats received two sequential i.v. injections of mephedrone or its metabolites, with 1 mg·kg^−1 administered at time zero, followed by 3 mg·kg^−1 60 min later. Saline was administered using the same schedule in a separate group of rats. Dialysate concentrations of dopamine and 5‐HT were quantified using HPLC coupled to electrochemical detection (Baumann et al., 2012). Chromatographic data were exported to an Empower software system (Waters, Inc., Milford, MA, USA) for peak identification, integration and analysis.
Correct probe placements were assessed after the microdialysis experiments. Rats were killed by CO2 narcosis then decapitated. Brains were quickly removed and immersion fixed in 10% paraformaldehyde for 1 week. Subsequently, brains were sectioned on a cryostat, and the location of each probe tip was verified by inspection of photographic images of the brain taken with a digital camera using the macro lens setting.
(§4) Calculations were performed using Microsoft Excel® 2010 (Microsoft Corporation, Redmond, WA, USA) and GRAPHPAD PRISM 5.0. (GraphPad Software Inc., La Jolla, CA, USA). IC50 values for uptake inhibition and EC50 values for release were determined by nonlinear regression fits. Release data expressed as AUC were analysed by one‐way ANOVA followed by Bonferroni's multiple comparison test. Microdialysis and locomotor data were analysed by two‐way ANOVA (drug treatment × time) followed by Bonferroni's test. The effect of monensin treatment on basal efflux of tritiated substrate was analysed with the Mann–Whitney test. P values less than 0.05 (i.e. P < 0.05) were considered significant. The data and statistical analysis comply with the recommendations on experimental design and analysis in pharmacology (Curtis et al., 2015).

A further assay concerns rats. The assay can be described thus: Locomotor activity (photobeam breaks) during microdialysis. The class given is in vivo. The following applies: rat; for effect on motor activity: 3 mg·kg−1 i.v.; for effect on motor behaviour (activity): 1 and 3 mg·kg−1 i.v. As for the experimental part: as §3, §4
The mark [2] stands for this setting: EC50 on transporter mediated efflux, DAT.
Setting [3] is: EC50 on transporter mediated efflux, NET.
The mark [4] stands for this setting: 3 mg·kg−1 i.v. (60 min after 1 mg·kg−1).

T1 sequence (P23977 whole entry): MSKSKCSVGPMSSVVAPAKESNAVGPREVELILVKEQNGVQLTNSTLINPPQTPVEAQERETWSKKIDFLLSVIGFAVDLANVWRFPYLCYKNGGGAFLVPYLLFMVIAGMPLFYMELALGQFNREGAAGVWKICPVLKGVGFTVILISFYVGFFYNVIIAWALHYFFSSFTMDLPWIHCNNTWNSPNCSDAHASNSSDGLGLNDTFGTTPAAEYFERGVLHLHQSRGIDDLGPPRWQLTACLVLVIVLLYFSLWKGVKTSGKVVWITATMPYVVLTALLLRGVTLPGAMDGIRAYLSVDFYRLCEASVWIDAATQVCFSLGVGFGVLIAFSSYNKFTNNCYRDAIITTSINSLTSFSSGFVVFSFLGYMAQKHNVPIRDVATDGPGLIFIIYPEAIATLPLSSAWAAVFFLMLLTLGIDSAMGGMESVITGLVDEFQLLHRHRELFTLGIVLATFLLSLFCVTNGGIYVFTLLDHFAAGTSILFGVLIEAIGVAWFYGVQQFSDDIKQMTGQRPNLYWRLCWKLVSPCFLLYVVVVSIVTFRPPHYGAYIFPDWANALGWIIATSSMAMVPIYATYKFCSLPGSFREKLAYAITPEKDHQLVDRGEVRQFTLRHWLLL

`Cc1ccc(C(=O)C(C)N)cc1.Cl` (stereo not shown) [Nor‐mephedrone, 2‐amino‐1‐(p‐tolyl)propan‐1‐one hydrochloride] registered an EC50 on DAT (setting [2]) of 0.22 µM. On NET (setting [3]), this compound displayed an EC50 of 0.1 µM. Moreover, the “effect on dialysate dopamine” value in assay [1] (setting [4]) is listed as “elevated dopamine”. Besides, in the assay on rats, the “effect on motor activity” value is recorded as “significantly stimulated motor activity” and the “effect on motor behaviour (activity)” value is reported as “increased activity”.

Consider `CNC(C)C(=O)c1ccc(C)cc1.Cl` (stereo not shown) [Mephedrone, 2‐Methylamino‐1‐(p‐tolyl)propan‐1‐one hydrochloride], for which the EC50 on DAT (setting [2]) was 0.052 µM; on NET (setting [3]), 0.09 µM. The “effect on dialysate dopamine” value is recorded as “increased dopamine” in assay [1] (1 mg·kg−1 i.v.) and “elevated dopamine” in assay [1] (setting [4]). Further, in the assay on rats, the “effect on motor activity” value was “significantly stimulated motor activity”. In addition, in the assay with rats, the “effect on motor behaviour (activity)” value is recorded as “increased activity”.

With `CNC(C)C(=O)c1ccc(CO)cc1.Cl` (stereo not shown) [4‐OH‐mephedrone, 1‐(4‐(hydroxymethyl)phenyl)‐2‐(methylamino)propan‐1‐one hydrochloride], the EC50 on DAT (read-out: EC50 on transporter mediated efflux, DAT) is 0.19 µM; at NET (read-out: EC50 on transporter mediated efflux, NET), 0.15 µM. Also, the “effect on dialysate dopamine” value in assay [1] (1 mg·kg−1 i.v.) and in assay [1] (setting [4]) was “no significant impact” in each case. Besides, the “effect on motor behaviour (activity)” value in the assay on rats is given as “did not”.
